Earlier results, collected in patent US20150309031A2, “COMPOSITIONS AND METHODS FOR PROGNOSIS AND TREATMENT OF CANCER” (NOVAZOI THERANOSTICS, priority 2013, published 2015).

Legend:
[1] = biological target: T1, KIFC1/microtubule (MT) binary complex (Homo sapiens, UniProt Q9BW19); conditions: read-out: Ki (ATP-competitive, MT-noncompetitive inhibition of MT-stimulated KIFC1 enzymatic activity); cited from earlier work
T1 sequence (Q9BW19 1-673): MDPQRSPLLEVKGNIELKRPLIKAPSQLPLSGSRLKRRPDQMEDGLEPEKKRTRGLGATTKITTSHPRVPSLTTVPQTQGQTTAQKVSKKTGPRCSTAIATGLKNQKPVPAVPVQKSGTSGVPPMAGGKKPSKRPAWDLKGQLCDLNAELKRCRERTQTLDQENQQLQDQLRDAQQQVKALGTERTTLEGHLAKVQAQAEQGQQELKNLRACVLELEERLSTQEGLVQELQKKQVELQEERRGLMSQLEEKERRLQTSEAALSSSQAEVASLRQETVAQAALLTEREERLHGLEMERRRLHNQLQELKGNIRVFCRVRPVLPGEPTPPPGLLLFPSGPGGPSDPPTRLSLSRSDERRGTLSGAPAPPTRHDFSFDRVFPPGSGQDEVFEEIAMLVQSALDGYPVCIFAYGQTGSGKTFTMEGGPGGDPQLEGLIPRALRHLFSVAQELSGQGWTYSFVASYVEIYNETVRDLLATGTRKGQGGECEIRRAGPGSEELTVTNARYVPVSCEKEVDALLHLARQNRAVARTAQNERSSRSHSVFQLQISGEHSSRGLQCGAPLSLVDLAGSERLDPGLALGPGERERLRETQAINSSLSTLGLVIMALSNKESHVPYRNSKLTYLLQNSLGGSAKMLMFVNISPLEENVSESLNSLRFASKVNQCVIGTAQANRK

[2] = tested on: BT-549 breast cancer cells; conditions: BT-549 cells with amplified centrosomes; cited from earlier work

## CCCc1cc(C(=O)N[C@H](Cc2ccc(-c3cccc(OC(F)(F)F)c3)nc2)C(=O)N[C@@H]2CCNC2)sc1C [AZ82]
[1]
  Ki: 43 nM
[2]
  centrosome declustering: causes centrosome declustering
